Results published in patent US6730792B2, “β3 adrenergic agonists” (Eli Lilly and Company, priority 2000, dated 2004).

Molecular target: T1, human β3 adrenergic receptor (Homo sapiens, UniProt P13945)
T1 construct: expressed in transfected cells; host or cells: DXB-11 Chinese hamster ovary (CHO) cell line, stably transfected (phd expression vector)
Assay: whole cell receptor coupled c-AMP assay, human β3 receptor in CHO cells (EC50, Emax relative to isoproterenol)
Format: cell-based
Settings: % intrinsic activity relative to isoproterenol maximal response; SEM in brackets; c-AMP in transfected CHO cells
How it was run: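 Stably transfected DXB-11 CHO cells (20,000/well) were exposed to compound for 20 min at 37 °C in HBSS/HEPES buffer with 1 mM IBMX, pH 7.4. cAMP was measured by SPA. EC50 came from a four-parameter logistic fit, and Emax is the maximal response as a percentage of isoproterenol's.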

T1 sequence (P13945 whole entry): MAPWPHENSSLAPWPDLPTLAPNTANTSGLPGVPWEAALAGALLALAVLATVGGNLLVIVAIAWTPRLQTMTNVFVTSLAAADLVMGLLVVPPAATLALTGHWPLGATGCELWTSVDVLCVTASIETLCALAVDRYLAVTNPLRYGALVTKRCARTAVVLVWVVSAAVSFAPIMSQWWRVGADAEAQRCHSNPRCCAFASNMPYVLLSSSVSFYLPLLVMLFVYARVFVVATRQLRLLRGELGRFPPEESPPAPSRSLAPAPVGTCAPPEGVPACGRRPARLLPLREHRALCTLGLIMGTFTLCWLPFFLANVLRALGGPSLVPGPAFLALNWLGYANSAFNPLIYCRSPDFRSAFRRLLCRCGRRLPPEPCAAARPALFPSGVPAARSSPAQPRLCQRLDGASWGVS

Q: For `CC(C)(Cc1ccc(Oc2cccnc2C(N)=O)cc1)NC[C@H](O)COc1ccccc1-c1ccc(C(=O)O)s1` [Example 448], which Emax is on record?
A: The Emax was 79.9%.

Q: `CC(C)(Cc1ccc(Oc2ncccc2C(N)=O)cc1)NC[C@H](O)COc1ccccc1-c1ccc(C(=O)O)s1` [Example 449] was tested. Which Emax did it give?
A: The Emax was 74.2%.

Q: How did the Emax turn out when `CC(C)(Cc1ccc(Oc2ncccc2C(N)=O)cc1)NC[C@H](O)COc1ccccc1-c1ccc(C(N)=O)s1` [Example 450] was run?
A: Its Emax is 67.4%.

Same assay, conditions: % intrinsic activity relative to isoproterenol maximal response; average of at least 3 runs; c-AMP in transfected CHO cells

Q: `CC(=O)c1ccc(-c2ccccc2OC[C@@H](O)CNC(C)(C)Cc2ccc(Oc3ccc(C(N)=O)cn3)cc2)s1.O=C(O)C(F)(F)F` [Example 411] was tested. Which “Emax (%) ± SEM” value did it give?
A: Its value is 78.2 ± 9.9%.

Q: With `CC(C)(Cc1ccc(Oc2ccc(C(N)=O)cn2)cc1)NC[C@H](O)COc1ccccc1-c1ccco1.Cl` [Example 412] as the compound, how does the “Emax (%) ± SEM” value read?
A: The value was 74.4 ± 7.0%.

Q: How did the “Emax (%) ± SEM” value turn out when `Cc1ccc(-c2ccccc2OC[C@@H](O)CNC(C)(C)Cc2ccc(Oc3ncccc3C#N)cc2)s1.Cl` [Example 413] was run?
A: The value was 66.9 ± 9.2%.

Q: Which “Emax (%) ± SEM” value does the source give for `CC(C)(Cc1ccc(Oc2ncccc2C#N)cc1)NC[C@H](O)COc1ccccc1-c1ccc(Cl)s1.O=C(O)C(F)(F)F` [Example 414] here?
A: Its value is 65.7 ± 11.4%.

Q: How did the “Emax (%) ± SEM” value turn out when `CC(=O)c1ccc(-c2ccccc2OC[C@@H](O)CNC(C)(C)Cc2ccc(Oc3ncccc3C#N)cc2)s1.O=C(O)C(F)(F)F` [Example 415] was run?
A: Its value is 80.6 ± 5.7%.

Q: `CC(C)(Cc1ccc(Oc2ncccc2C#N)cc1)NC[C@H](O)COc1ccccc1-c1ccco1.Cl` [Example 416] was tested. Which “Emax (%) ± SEM” value did it give?
A: The value was 68.9 ± 6.7%.

Q: `Cc1ccc(-c2ccccc2OC[C@@H](O)CNC(C)(C)Cc2ccc(Oc3ncccc3C(N)=O)cc2)s1.Cl` [Example 417] was tested. Which “Emax (%) ± SEM” value did it give?
A: The value was 79.3 ± 2.4%.

Q: `CC(C)(Cc1ccc(Oc2ncccc2C(N)=O)cc1)NC[C@H](O)COc1ccccc1-c1ccc(Cl)s1.Cl` [Example 418] was tested. Which “Emax (%) ± SEM” value did it give?
A: Its value is 74.4 ± 6.5%.

Q: How did the “Emax (%) ± SEM” value turn out when `CC(=O)c1ccc(-c2ccccc2OC[C@@H](O)CNC(C)(C)Cc2ccc(Oc3ncccc3C(N)=O)cc2)s1.O=C(O)C(F)(F)F` [Example 419] was run?
A: Its value is 87.5 ± 1.8%.

Q: With `CC(C)(Cc1ccc(Oc2ncccc2C(N)=O)cc1)NC[C@H](O)COc1ccccc1-c1ccco1.Cl` [Example 420] as the compound, how does the “Emax (%) ± SEM” value read?
A: The value was 78.9 ± 2.3%.

Q: For `CC(C)(Cc1ccc(Oc2cccnc2C#N)cc1)NC[C@H](O)COc1ccccc1-c1ccsc1.Cl` [Example 421], which “Emax (%) ± SEM” value is on record?
A: Its value is 53.4 ± 6.9%.

Q: With `Cc1ccc(-c2ccccc2OC[C@@H](O)CNC(C)(C)Cc2ccc(Oc3cccnc3C#N)cc2)s1.Cl` [Example 422] as the compound, how does the “Emax (%) ± SEM” value read?
A: Its value is 60.1 ± 8.2%.

Q: Which “Emax (%) ± SEM” value does the source give for `CC(=O)c1ccc(-c2ccccc2OC[C@@H](O)CNC(C)(C)Cc2ccc(Oc3cccnc3C#N)cc2)s1.Cl` [Example 424] here?
A: Its value is 71.2 ± 7.9%.

Q: Which “Emax (%) ± SEM” value does the source give for `CC(C)(Cc1ccc(Oc2cccnc2C#N)cc1)NC[C@H](O)COc1ccccc1-c1ccco1.Cl` [Example 425] here?
A: The value was 67.1 ± 3.0%.

Q: For `CC(C)(Cc1ccc(Oc2ccc(C#N)cn2)cc1)NC[C@H](O)COc1c(F)cccc1-c1ccsc1.Cl` [Example 426], which “Emax (%) ± SEM” value is on record?
A: Its value is 61.0 ± 7.1%.

Q: Which “Emax (%) ± SEM” value does the source give for `Cc1ccc(-c2cccc(F)c2OC[C@@H](O)CNC(C)(C)Cc2ccc(Oc3ccc(C#N)cn3)cc2)s1.Cl` [Example 427] here?
A: The value was 72.4 ± 6.9%.

Q: How did the “Emax (%) ± SEM” value turn out when `CC(C)(Cc1ccc(Oc2ccc(C#N)cn2)cc1)NC[C@H](O)COc1c(F)cccc1-c1ccc(Cl)s1.Cl` [Example 428] was run?
A: The value was 75.5 ± 6.9%.

Q: How did the “Emax (%) ± SEM” value turn out when `CC(=O)c1ccc(-c2cccc(F)c2OC[C@@H](O)CNC(C)(C)Cc2ccc(Oc3ccc(C#N)cn3)cc2)s1.O=C(O)C(F)(F)F` [Example 429] was run?
A: Its value is 84.7 ± 12.3%.

Q: `CC(C)(Cc1ccc(Oc2ccc(C#N)cn2)cc1)NC[C@H](O)COc1c(F)cccc1-c1ccco1.Cl` [Example 430] was tested. Which “Emax (%) ± SEM” value did it give?
A: The value was 77.4 ± 9.0%.

Q: With `CC(C)(Cc1ccc(Oc2ncccc2C#N)cc1)NC[C@H](O)COc1c(F)cccc1-c1ccsc1.Cl` [Example 436] as the compound, how does the “Emax (%) ± SEM” value read?
A: The value was 57.5 ± 12.0%.

Q: How did the “Emax (%) ± SEM” value turn out when `Cc1ccc(-c2cccc(F)c2OC[C@@H](O)CNC(C)(C)Cc2ccc(Oc3ncccc3C#N)cc2)s1.Cl` [Example 437] was run?
A: The value was 72.0 ± 10.5%.

Q: For `CC(C)(Cc1ccc(Oc2ncccc2C#N)cc1)NC[C@H](O)COc1c(F)cccc1-c1ccc(Cl)s1.Cl` [Example 438], which “Emax (%) ± SEM” value is on record?
A: Its value is 64.3 ± 12.4%.

Q: How did the “Emax (%) ± SEM” value turn out when `CC(=O)c1ccc(-c2cccc(F)c2OC[C@@H](O)CNC(C)(C)Cc2ccc(Oc3ncccc3C#N)cc2)s1.O=C(O)C(F)(F)F` [Example 439] was run?
A: The value was 75.0 ± 9.6%.

Q: Which “Emax (%) ± SEM” value does the source give for `CC(C)(Cc1ccc(Oc2ncccc2C#N)cc1)NC[C@H](O)COc1c(F)cccc1-c1ccco1.Cl` [Example 440] here?
A: Its value is 73.4 ± 4.4%.

Q: With `CC(C)(Cc1ccc(Oc2ncccc2C(N)=O)cc1)NC[C@H](O)COc1ccccc1-c1ccsc1.Cl` [Example 446] as the compound, how does the “Emax (%) ± SEM” value read?
A: The value was 64.0 ± 6.0%.
